The text below walks through data of US20200325505A1, “FILAMENTOUS FUNGI CAPABLE OF PRODUCING VERY LONG CHAIN FATTY ACIDS” (UT-Battelle, LLC, priority 2019, published 2020).

Like-named read-outs stand apart in the source and are kept apart here. Residues, ends and D or L forms follow the SMILES beside them.

For the data set, the system named is Mortierella elongata AG77. The data set can be described thus: Nitrogen source utilisation in Biolog 96-well plates, formazan formation after tetrazolium addition. The data set is classed as cell-based. Particulars: for Metabolized: Metabolized = more formazan formation than a control containing no nitrogen source, observed visually at 2 h, 24 h, 148 h; for Nitrogen sources that Mortierella elongata AG77 can metabolize: text summary of Table 4. How it is done: Two 300 mL volumes of growth medium comprising 1 g/L KH2PO4, 1 g/L MgSO4 7H2O, 0.1 g/L CaCl2, 0.02 g/L FeNaEDTA, 0.1 g/L NaCl, and either 1 g/L NH4NO3 or 20 g/L sucrose were prepared. […] Aliquots of 200 μL of carbon-free medium or nitrogen-free medium were pipetted into each well of a set of 96-well plates previously prepared with lyophilized putative carbon or nitrogen sources (Biolog Inc., Hayward, Calif.). Inocula were prepared by perforating a culture of Mortierella elongata AG77 grown on 20 g/L potato dextrose agar with a 3 mm diameter cork borer and separating the surface mycelial mat from the solid growth medium using tweezers. Each well was inoculated with one inoculum. Cultures were incubated at 21° C. for 24 hours to allow metabolic changes to stabilize, and then 100 μL of 3 g/L tetrazolium chloride in water was added to each well.
Conclusions were based on rate and intensity of formazan formation using the 3-(4,5-dimethylthiazol-2-yl)-2,5-diphenyltetrazolium bromide ([…]) assay. “Metabolized” indicates more formazan formation than a control containing no nitrogen source, and “Toxic” indicates less formazan formation than a control containing no nitrogen source, “Metabolized” and “Toxic” assignments are mutually exclusive. In this example, a compound may be “Metabolized” or “Toxic,” but not both.

Setting [1] is: compound as nitrogen source, Toxic = less formazan formation than a control containing no nitrogen source.

On to `CCCCCCC(N)C(=O)O` (racemic) [D,L-α-Amino- Caprylic Acid], for which the Metabolized result (compound as nitrogen source) is “no”. Also, the Toxic result under setting [1] is on record as “no”.

For `CCC(N)C(=O)O` (racemic) [D,L-α-Amino-N-Butyric Acid], the Toxic entry is “no”. Further, the Metabolized entry (compound as nitrogen source) was “no”.

For `Nc1ncnc2nc[nH]c12` [Adenine], the Toxic result is “no”. Where the note is “compound as nitrogen source”, the Metabolized entry was “no”.

`N=C(N)NCCCCN` [Agmatine]: for the setting “compound as nitrogen source”, the Metabolized result was “no”. Moreover, the Toxic entry under setting [1] was “no”.

Turning to `C[C@H](N)C(=O)N[C@@H](CC(=O)O)C(=O)O` [Ala-Asp] (H-Ala-Asp-OH), the “Nitrogen sources that Mortierella elongata AG77 can metabolize” value is “can metabolize”. Moreover, the Metabolized entry (compound as nitrogen source) was “yes”. Moreover, the Toxic entry under setting [1] was “no”.

Take `C[C@H](N)C(=O)N[C@@H](CCC(N)=O)C(=O)O` [Ala-Gln] (H-Ala-Gln-OH): the “Nitrogen sources that Mortierella elongata AG77 can metabolize” value is on record as “can metabolize”. Besides, for the setting “compound as nitrogen source”, the Metabolized result is “yes”. For the same compound, the Toxic result under setting [1] is “no”.

Take `C[C@H](N)C(=O)N[C@@H](CCC(=O)O)C(=O)O` [Ala-Glu] (H-Ala-Glu-OH): the “Nitrogen sources that Mortierella elongata AG77 can metabolize” value was “can metabolize”. In addition, the Metabolized entry (compound as nitrogen source) is reported as “yes”. For the same compound, under setting [1], the Toxic entry is “no”.

On to `C[C@H](N)C(=O)N[C@@H](Cc1cnc[nH]1)C(=O)O` [Ala-His] (H-Ala-His-OH), for which the Metabolized entry (compound as nitrogen source) is “no”. Moreover, the Toxic entry under setting [1] is recorded as “no”.

For `CC(C)C[C@H](NC(=O)[C@H](C)N)C(=O)O` [Ala-Leu] (H-Ala-Leu-OH), the “Nitrogen sources that Mortierella elongata AG77 can metabolize” value was “can metabolize”. Moreover, the Metabolized result (compound as nitrogen source) is reported as “yes”. Further, the Toxic result under setting [1] is given as “no”.

Turning to `C[C@H](N)C(=O)N[C@H](C(=O)O)[C@@H](C)O` [Ala-Thr] (H-Ala-Thr-OH), the Metabolized result (compound as nitrogen source) is recorded as “no”. The Toxic result under setting [1] is recorded as “no”.

As for `NC(=O)NC1NC(=O)NC1=O` (stereo not drawn) [Allantoin], the Toxic result is given as “no”. Besides, the Metabolized entry (compound as nitrogen source) is recorded as “no”.

Take `O=C1NC(=O)C(=O)C(=O)N1` [Alloxan]: the Metabolized entry (compound as nitrogen source) is on record as “no”. The Toxic entry under setting [1] was “no”.

Regarding `N` [Ammonia], the Toxic entry is given as “no”. Besides, for the setting “compound as nitrogen source”, the Metabolized entry is listed as “no”.

As to `NC(=O)NC(N)=O` [Biuret], the Metabolized entry (compound as nitrogen source) is listed as “no”. Moreover, under setting [1], the Toxic result was “no”.

As to `Nc1ccn([C@@H]2O[C@H](CO)[C@@H](O)[C@H]2O)c(=O)n1` [Cytidine], the Toxic result is “no” and the “Nitrogen sources that Mortierella elongata AG77 can metabolize” value was “can metabolize”. Besides, for the setting “compound as nitrogen source”, the Metabolized result is reported as “yes”.

For `Nc1cc[nH]c(=O)n1` [Cytosine], the Toxic entry was “no”. Also, the Metabolized entry (compound as nitrogen source) is given as “no”.

As for `NC(=O)C[C@@H](N)C(=O)O` [D-Asparagine], the Toxic entry is “no”. For the same compound, the Metabolized result (compound as nitrogen source) is given as “no”.

As for `N[C@H]1C(O)O[C@H](CO)[C@H](O)[C@@H]1O` (stereo partly drawn) [D-Galactosamine], the Toxic entry is listed as “no”. The Metabolized result (compound as nitrogen source) is “no”.

As to `N[C@H](CCC(=O)O)C(=O)O` [D-Glutamic Acid], the Metabolized entry (compound as nitrogen source) was “no”. Further, the Toxic entry under setting [1] is “no”.

With `NCCCC[C@@H](N)C(=O)O` [D-Lysine], the Toxic result is recorded as “no”. Moreover, where the note is “compound as nitrogen source”, the Metabolized result is recorded as “no”.

As for `N[C@@H]1C(O)O[C@H](CO)[C@@H](O)[C@@H]1O` (stereo partly drawn) [D-Mannosamine], the Toxic entry was “no”. The Metabolized entry (compound as nitrogen source) is recorded as “no”.

Take `CC(C)[C@@H](N)C(=O)O` [D-Valine]: the Toxic result is listed as “no”. Besides, the Metabolized result (compound as nitrogen source) was “no”.

`CCN` [Ethylamine]: the Metabolized entry (compound as nitrogen source) is “no”. The Toxic entry under setting [1] is recorded as “no”.

As for `NCCN` [Ethylenediamine], the Toxic result was “no”. Moreover, the Metabolized result (compound as nitrogen source) is given as “no”.

For `NC=O` [Formamide], where the note is “compound as nitrogen source”, the Metabolized entry is reported as “no”. Besides, the Toxic entry under setting [1] is “no”.

As to `NCC(=O)N[C@@H](CC(N)=O)C(=O)O` [Gly-Asn] (H-Gly-Asn-OH), the Metabolized entry (compound as nitrogen source) was “no”. Further, under setting [1], the Toxic entry was “no”.

Turning to `NCC(=O)N[C@@H](CCC(N)=O)C(=O)O` [Gly-Gln] (H-Gly-Gln-OH), under “compound as nitrogen source”, the Metabolized result was “no”. In addition, the Toxic entry under setting [1] is reported as “no”.

In the case of `CSCC[C@H](NC(=O)CN)C(=O)O` [Gly-Met], the Metabolized result (compound as nitrogen source) was “no”. The Toxic entry under setting [1] is reported as “no”.

Consider `Nc1nc2nc[nH]c2c(=O)[nH]1` [Guanine], for which the Toxic entry is listed as “yes”. The Metabolized result (compound as nitrogen source) was “no”.

Consider `Nc1nc2c(ncn2[C@@H]2O[C@H](CO)[C@@H](O)[C@H]2O)c(=O)[nH]1` [Guanosine], for which, where the note is “compound as nitrogen source”, the Metabolized entry is listed as “no”. Under setting [1], the Toxic entry was “no”.

For the compound `NCCc1c[nH]cn1` [Histamine], the Toxic entry is reported as “no”. Moreover, the Metabolized entry (compound as nitrogen source) is given as “no”.

In the case of `NO` [Hydroxylamine], the Metabolized entry (compound as nitrogen source) is recorded as “no”.

Regarding `NC(=O)NCCC[C@H](N)C(=O)O` [L-Citrulline], the Metabolized entry (compound as nitrogen source) is given as “no”. Further, the Toxic result under setting [1] is “no”.

In the case of `N[C@@H](CS)C(=O)O` [L-Cysteine], the Metabolized entry (compound as nitrogen source) is “no”.

Turning to `N[C@@H](Cc1c[nH]c2ccccc12)C(=O)O` [L-Tryptophan], the Toxic entry is listed as “no”. The Metabolized entry (compound as nitrogen source) was “no”.

`N[C@@H](Cc1ccc(O)cc1)C(=O)O` [L-Tyrosine]: the Metabolized entry (compound as nitrogen source) was “no”. Further, the Toxic entry under setting [1] is “no”.

As to `CSCC[C@H](N)C(=O)N[C@@H](C)C(=O)O` [Met-Ala] (H-Met-Ala-OH), the Metabolized result (compound as nitrogen source) was “no”. The Toxic entry under setting [1] was “no”.

With `CN` [Methylamine], for the setting “compound as nitrogen source”, the Metabolized entry is recorded as “no”. Under setting [1], the Toxic result is “no”.

Take `CC(=O)N[C@@H]1C(O)O[C@H](CO)[C@@H](O)[C@@H]1O` (stereo partly drawn) [N-Acetyl-D-Mannosamine]: where the note is “compound as nitrogen source”, the Metabolized entry is “no”. In addition, the Toxic entry under setting [1] is “no”.

Take `CCCCCN` [N-Amylamine]: the Toxic entry was “no”. Besides, the Metabolized result (compound as nitrogen source) is recorded as “no”.

Turning to `CCCCN` [N-Butylamine], under “compound as nitrogen source”, the Metabolized result was “no”. Also, the Toxic entry under setting [1] is recorded as “no”.

`O=NO` [Nitrite]: where the note is “compound as nitrogen source”, the Metabolized entry was “no”. Under setting [1], the Toxic entry was “no”.

Take `O=C1NC(=O)C(=O)N1` [Parabanic Acid]: the “Nitrogen sources that Mortierella elongata AG77 can metabolize” value is on record as “can metabolize”. Also, the Metabolized entry (compound as nitrogen source) is recorded as “yes”. Also, the Toxic result under setting [1] is “no”.

For the compound `Cc1c[nH]c(=O)[nH]c1=O` [Thymine], the Toxic entry is on record as “no”. Moreover, where the note is “compound as nitrogen source”, the Metabolized entry was “no”.

For `O=c1cc[nH]c(=O)[nH]1` [Uracil], the Toxic result was “no”. Also, the Metabolized result (compound as nitrogen source) was “no”.

For the compound `NC(N)=O` [Urea], the Metabolized result (compound as nitrogen source) is “no”. Further, the Toxic entry under setting [1] is “no”.

`O=c1[nH]c(=O)c2[nH]c(=O)[nH]c2[nH]1` [Uric Acid]: the Metabolized result (compound as nitrogen source) was “no”. The Toxic entry under setting [1] is “no”.

Turning to `O=c1[nH]c(=O)c2[nH]cnc2[nH]1` [Xanthine], the Toxic entry is “no”. Moreover, the Metabolized result (compound as nitrogen source) is “no”.

As for `O=c1[nH]c(=O)c2ncn([C@@H]3O[C@H](CO)[C@@H](O)[C@H]3O)c2[nH]1` [Xanthosine], the Toxic entry is “no”. Also, the Metabolized result (compound as nitrogen source) is listed as “no”.
